# Measurements as given in US6528251B2, “Method of managing the chemotherapy of patients who are HIV positive based on the phenotypic drug sensitivity of human HIV strains” (Virco N.V., priority 1996, dated 2003).
# Like-named read-outs stand apart in the source and are kept apart here.
# How the values were obtained:
# Type in all cases: cell-based, HIV-1
# [1] = test system: Recombinant wild type HIV strain recIIIB; test: Antiviral MT4/MTT assay with reference virus recIIIB; conditions: read-out: Anti-HIV-1 activity IC50 (μM) recIIIB ref (2)
# Method: (§1) After titration of the new viruses, the stocks were used for antiviral experiments in the presence of serial dilutions of different HIV inhibitors. Titres of the harvested supematants were determined by limited serial dilution titration of virus in MT4 cells.
# (§2) Viruses with a useful titre were used in antiviral experiments. For this purpose, 96-well microtitre plates were filled with 100μl of complete culture medium. Subsequently, stock solutions of compounds were added in 25 μl volumes to series of duplicate wells. HIV- and mock-infected cell samples were included for each drug (or drug combination). Exponentially growing MT4 cells were then transferred to the microtitre plates at a density of 150,000 cells/ml. The cell cultures were then incubated at 37° C. in a humidified atmosphere of 5% CO2. Five days after infection, the viability of the mock- and HIV-infected cells was examined spectrophotometrically by the M1T method (Pauwels, R. et al. J. Virol. Meth. (1988), 20: 309-321) as described in Section 6 below.
# (§3) To each well of the microtiter plates, 20 μl of a solution of MTT (7.5 mg/ml in PBS) was added. The plates were further incubated at 37° C. for 1 h. Then, 150 μl of medium was removed without disturbing the MT4 cell clusters containing the formazan crystals. Solubilization of the formazan crystals was achieved by adding 100 μl 5% Triton X-100 in acidified isopropanol (5 ml concentrated HCl per liter solvent). Complete dissolution of the formazan crystals was obtained after the plates had been placed on a plate shaker for 10 min. Finally the absorbances were read at two wavelengths (540 and 690 nm). From these optical density (OD) data, 50% inhibitory (IC50) and 50% cytotoxic (CC50) concentrations were derived.
# [2] = test system: recombinant virus from patient viral RNA (Example 10, drug-naive patient); test: Recombinant virus assay (MT4/MTT), drug-naive patient of Example 10; conditions: for IC50: Human immunodeficiency virus 1, Table 6, Example 10 patient virus
# Method: (§4) RNA was isolated from 100 μl of plasma according to the method described by Boom, R. et al. (1990, supra), and was reverse transcribed with the GeneAmp reverse transcriptase kit (Perkin Elmer) as described by the manufacturer and using an HIV-1 specific downstream primer (OUT3: 5′-CATTGCTCTCCAATTACTGTGATATTTCTCATC-3′; SEQ ID NO: 1). PCR on reverse transcribed RNA was performed with inner and outer primers as described by Kellam, P. and Larder, B. A. (1994, supra). After chloroform extraction and centrifugation on Centricon 100 columns or centrifugation on anion-exchange spin columns (Quiagen), the isolated PCR product was ready for use in the transfection reactions.
# (§5) MT4 cells were subcultured at a density of 250,000 cells/ml before transfection (exponential growth phase). Cells were pelleted and resuspended in phosphate buffered saline (PBS) at a concentration of […]. A 0.8 ml portion (2.5 10E6 cells/ml) was used for each transfection. Transfection was performed with the Bio-Rad Gene pulser making use of 0.4 cm electrode cuvettes. Cells were electroporated in the presence of […] of linearised pHIVΔRT plasmid and approximately 5 μg of RT PCR product at 250SF and 300 V, followed by a 30-min incubation at room temperature. Subsequently, 10 ml of fresh culture medium was added to the cell suspension and incubation was performed at 37° C. in a humidified atmosphere of 5% CO2.
# (§6) During 7 to 10 days following the transfection, cells were monitored for the appearance of cytopathogenic effect (CPE). In the absence thereof, cells were subcultured in different flasks. Subsequently, culture supernatants of transfected cells were used to create a stock of recombinant virus and stored in 1.5 ml aliquots at −70° C.
# as §1, §2, §3
# (§7) A drug-naive HIV-infected patient donated plasma whose susceptibility to a number of RT inhibitors and protease inhibitors was determined according to the protocol set out in Example 1. Recombinant wild type HIV strain recIIIB was used as a reference HIV virus.
# [3] = test system: recombinant virus from patient viral RNA (Example 11); test: Recombinant virus assay (MT4/MTT), patient of Example 11 (therapy history RT and protease inhibitors); conditions: for IC50: Human immunodeficiency virus 1, Table 7, Example 11 patient virus
# Method: as §4, §5, §6, §1, §2, §3
# as §7, with “An HIV infected” for “A drug-naive HIV-infected”, “patient with a therapy history including RT and protease inhibitors” for “patient”, “recIIIb” for “recIIIB”
# [4] = test system: recombinant virus from patient viral RNA (Example 12); test: Recombinant virus assay (MT4/MTT), patient of Example 12 (therapy history RT and protease inhibitors); conditions: for IC50: Human immunodeficiency virus 1, Table 8, Example 12 patient virus
# Method: as §4, §5, §6, §1, §2, §3
# An HIV infected patient with a therapy history including RT and protease inhibitors donated plasma whose susceptibility to a number of RT inhibitors and protease inhibitors was determined according to the protocol set out in Example 1.
# [5] = MT4 cells, read-out: Anti-HIV-1 activity IC50 (μM) Exp. 1
# [6] = MT4 cells, read-out: Anti-HIV-1 activity IC50 (μM) Exp. 2
# [7] = mean, read-out: Anti-HIV-1 activity IC50 (μM) Mean (1)
compound,measurement,setting,value
CC(C)(C)NC(=O)[C@@H]1C[C@@H]2CCCC[C@@H]2CN1C[C@@H](O)[C@H](Cc1ccccc1)NC(=O)[C@H](CC(N)=O)NC(=O)c1ccc2ccccc2n1 [saquinavir],IC50,"[1]; Human immunodeficiency virus 1, Table 6, reference run of Example 10",0.006 µM
same,IC50,"[1]; Human immunodeficiency virus 1, Table 7, reference run of Example 11",0.012 µM
same,IC50,"[1]; Human immunodeficiency virus 1, Table 8, reference run of Example 12",0.006 µM
same,IC50,[2]; [5],0.003 µM
same,IC50,[2]; [6],0.003 µM
same,IC50,[2]; [7],0.003 µM
same,ratio (1)/(2),"[2]; Table 6, patient mean IC50 / recIIIB IC50, Example 10",0.4
same,IC50,[3]; [5],0.014 µM
same,IC50,[3]; [6],0.015 µM
same,IC50,[3]; [7],0.014 µM
same,ratio (1)/(2),"[3]; Table 7, patient mean IC50 / recIIIB IC50, Example 11",1
same,susceptibility of the patient's HIV strain (in words),"[4]; Example 12 patient, conclusion from Table 8",decreased susceptibility
same,IC50,[4]; [5],0.35 µM
same,IC50,[4]; [6],0.352 µM
same,IC50,[4]; [7],0.351 µM
same,ratio (1)/(2),"[4]; Table 8, patient mean IC50 / recIIIB IC50, Example 12",56
